Test results taken from patent US20160115540A1, “PRODRUGS AND DRUGS” (Biogen MA Inc., priority 2013, published 2016).
Structures can show the parent of a compound that is named as a salt.

Test system: brain
Assay: Transcriptional profiling, multi-dosing regimen, naïve mice: brain
Type: in vivo
Conditions: for FC: BRAIN_HEMI, 100MMF-vs-Veh
Description: In vivo, DMF is rapidly metabolized to monomethyl fumarate (MMF). […] Animals were exposed to CO2 and whole blood collected via cardiac puncture. Two 100 μl aliquots of whole blood were collected in 1.5 mL microcentrifuge tubes and snap frozen in liquid nitrogen. Peripheral (liver, spleen, kidney and jejunum) and CNS brain (cerebellum, hippocampus, striatum and cortex) tissues were harvested and snap frozen in liquid nitrogen, with special care taken to collect tissues of similar size and from the same location. All samples were stored at -80° C. until RNA extraction was conducted. For RNA preparation, frozen tissues were placed in 2 mL RNAse-free 96-well blocks with 1.5 mL QIAzol Lysis Reagent (QIAgen) and a 3.2 mm stainless steel bead (BioSpec Products, Bartlesville, Okla.). Tissues were disrupted for four cycles of 45 seconds in a Mini-Beadbeater (Biospec Products). RNA was extracted in chloroform and the aqueous phase was mixed with an equal volume of 70% ethanol. Extracted RNA was applied to RNeasy 96 plates and purified by the spin method according to the manufacturer's protocol (RNeasy 96 Universal Tissue Protocol, QIAgen, Hilden Germany). […] Two micrograms of biotin labeled […] probe were hybridized to Affymetrix GeneChip Affymetrix HT_MG-430_PM plate arrays with modified conditions as described in […] et al. Washing and staining of the hybridized arrays were completed as described in the GeneChip Expression analysis technical manual for HT plate arrays using the Genechip® Array Station (Affymetrix, Santa Clara, Calif.) with modifications as described in […] et al. The processed GeneChip® plate arrays were scanned using GeneTitan scanner (Affymetrix, Santa Clara, Calif.). Affymetrix scans were subject to quality control (QC) measures. These tests included a visual inspection of the distribution of raw signal intensities and an assessment of RNA degradation, relative log expression (RLE), and normalized unsealed standard error (NUSE). All sample scans that passed these QC metrics were included in the analysis. All CEL files were subjected to GC-content-based Robust Multi-array Average (GCRMA) normalization (version 2.20.0) (Irizarry R A, et al. Nucleic Acids Res 2003; 31:e15; Li C, et al. […] Stat Appl Genet Mol Biol 2004; 3:Article3). […] Springer Science+Business Media 2005). Changes in gene expression were studied by applying a linear modeling approach to fit gene expression levels according to the defined groups of samples (e.g. DMF-, MMF-, and Vehicle-treated animals) and Bayesian posterior error analysis as implemented by Smyth (Smyth G K. Stat Appl Genet Mol Biol 2004; 3:Article3). The comparisons considered included: DMF-vs-MMF, DMF-vs-Vehicle, and MMF-vs-Vehicle. […] Very few DEGs are observed in blood and tissues derived from the central nervous system (brain, cerebellum, cortex, striatum, and spinal cord).

COC(=O)/C=C/C(=O)O [MMF, monomethyl fumarate]
FC (0610037L13Rik 1429879_PM_at): −1.51 | FC (1436646_PM_at (no gene symbol)): −1.53 | FC (1437987_PM_at (no gene symbol)): −1.66 | FC (1438259_PM_at (no gene symbol)): −1.59 | FC (2310079F09Rik 1433201_PM_at): 2.17 | FC (2610021A01Rik 1438786_PM_a_at): −1.90 | FC (2610044O15Rik 1428693_PM_at): −1.52 | FC (2900062L11Rik 1428333_PM_at): −1.50 | FC (4930432O21Rik 1434625_PM_at): −1.66 | FC (4930453N24Rik 1438553_PM_x_at): −1.61 | FC (4933421E11Rik 1428162_PM_at): −1.50 | FC (A730017C20Rik 1437528_PM_x_at): −2.06 | FC (AI597468 1433897_PM_at): −1.51 | FC (AI747699 1433914_PM_at): −2.28 | FC (Abi1 1438506_PM_s_at): −2.04 | FC (Acad9 1429581_PM_at): −1.55 | FC (Akr1a4 1430123_PM_a_at): −1.75 | FC (Aldh9a1 1436689_PM_a_at): −1.63 | FC (Aldh18a1 1437325_PM_x_at): −1.51 | FC (Ampd2 1438941_PM_x_at): −1.76 | FC (Apex1 1437715_PM_x_at): −1.52 | FC (Appl1 1436116_PM_x_at): −1.62 | FC (Arhgap21 1428369_PM_s_at): −1.66 | FC (Atp13a5 1436411_PM_at): −1.51 | FC (Atxn10 1438653_PM_x_at): −1.69 | FC, Depp (1433836_PM_a_at) (BrainHemi, multi-dosing, MMF-vs-Vehicle): −1.01 | FC (Btg1 /// LOC100047353 1437455_PM_a_at): −1.55 | FC (Cadm2 1429211_PM_at): −1.76 | FC (Cadm2 1435146_PM_s_at): −2.25 | FC (Cherp 1436885_PM_a_at): −1.99 | FC (Chuk 1428210_PM_s_at): −1.68 | FC (Clcc1 1436390_PM_a_at): −1.64 | FC (Clvs1 1433906_PM_at): −1.54 | FC (Cpt1a 1434866_PM_x_at): −1.81 | FC (Cttnbp2 1435435_PM_at): −1.75 | FC (Dab2 1429693_PM_at): 1.53 | FC (Ddx5 1438371_PM_x_at): −1.52 | FC (Derl1 1437723_PM_s_at): −1.51 | FC (Dnpep 1438557_PM_x_at): −1.50 | FC (Enoph1 1437327_PM_x_at): −1.62 | FC (Fam13c 1436761_PM_s_at): −1.83 | FC (Fbxo11 1434108_PM_at): −1.50 | FC (Gm5256 /// Gm5529 /// Slc25a5 1438360_PM_x_at): −1.53 | FC (Gm5256 /// Gm5529 /// Slc25a5 1438922_PM_x_at): −1.51 | FC (Gm6159 /// Hnrnpr 1437526_PM_x_at): −1.61 | FC (Gm11793 /// Hnrnpf 1437099_PM_x_at): −1.53 | FC (Gm13342 /// Gm15776 /// Gm3150 /// Gng5 /// LOC100044719 1436946_PM_s_at): −1.70 | FC (Gm14288 1429712_PM_at): −1.68 | FC (Gns 1433488_PM_x_at): −2.01 | FC (Gria4 1436772_PM_at): −1.57 | FC (Hadhb 1437172_PM_x_at): −1.86 | FC (Hbxip 1436152_PM_a_at): −1.65 | FC (Higd1c /// Mettl7a1 /// Mettl7a2 1434150_PM_a_at): −1.60 | FC (Hnrpdl 1428224_PM_at): −1.60 | FC (Hs3st2 1438624_PM_x_at): −1.86 | FC (Impa1 1436848_PM_x_at): −1.55 | FC (Ing1 1433267_PM_at): 1.53 | FC (Ipo4 1436420_PM_a_at): −1.64 | FC (Itgb8 1436223_PM_at): −1.59 | FC (LOC100047324 /// Sesn1 1438931_PM_s_at): −1.97 | FC (Laptm4b 1436915_PM_x_at): −1.68 | FC (Lasp1 1438634_PM_x_at): −1.50 | FC (Mettl9 1438171_PM_x_at): −1.63 | FC (Mthfd2l 1429599_PM_a_at): −1.71 | FC (Ncoa2 1435233_PM_at): −1.55 | FC (Ndufb6 1434056_PM_a_at): −1.56 | FC (Nelf 1436959_PM_x_at): −1.65 | FC (Nxph1 1436718_PM_at): −1.56 | FC (Paics 1436298_PM_x_at): −1.57 | FC (Paqr3 1429216_PM_at): −1.56 | FC (Phyhipl 1437062_PM_s_at): −1.69 | FC (Pisd-ps1 /// Pisd-ps3 1436944_PM_x_at): −2.43 | FC (Pofut2 1437845_PM_x_at): −1.98 | FC (Poldip3 1437837_PM_x_at): −1.74 | FC (Polr3a 1437525_PM_a_at): −1.76 | FC (Ppip5k2 1433856_PM_at): −1.57 | FC (Prkg2 1435162_PM_at): −1.69 | FC (Prss23 1437671_PM_x_at): −1.74 | FC (Ptpdc1 1433823_PM_at): −1.59 | FC (Ptpn2 1438562_PM_a_at): −1.74 | FC (Rgs19 1434940_PM_x_at): −1.51 | FC (Rif1 1429490_PM_at): −1.82 | FC (Rnf14 1437035_PM_x_at): −1.68 | FC (Rnf157 1434427_PM_a_at): −1.67 | FC (Sfrs13b 1437168_PM_at): −1.66 | FC (Slc9a3r1 1438115_PM_a_at): −1.85 | FC (Slc12a6 1436989_PM_s_at): −1.80 | FC (Snx16 1438803_PM_s_at): −1.55 | FC (Sp4 1437508_PM_at): −1.54 | Number of differentially expressed genes identified: Brain Hemi (Table 13: Naïve, Single Dose (so in the source), 90 mpk MMF-vs-Vehicle, 12 h after last dosing): 280 | FC (Tchh 1434425_PM_at): −1.64 | FC (Tmem41b 1428586_PM_at): −1.89 | FC (Tox3 1436600_PM_at): −1.56 | FC (Trim9 1434249_PM_s_at): −1.58 | FC (Ttc14 1437878_PM_s_at): −1.64 | FC (Tubgcp4 1433659_PM_at): −1.54 | FC (Uba2 1437278_PM_a_at): −1.50 | FC (Uba3 1435164_PM_s_at): −1.65 | FC (Zdhhc20 1434236_PM_at): −1.64 | FC (Zfp110 1437236_PM_a_at): −1.77 | FC (Zfp260 1436495_PM_s_at): −1.65 | FC (Zfp788 1429371_PM_at): −1.65
